# Measured values: patent US10144715B2, “Piperazine derivatives as liver X receptor modulators” (priority 2014, dated 2018)
# Read-outs that look alike come from different tables or passages of the source.
# What was measured:
# LXR α LBD protein = LXR α LBD protein (Homo sapiens (Human), UniProt Q13133); assay: Human LXRα coactivator recruitment FRET assay, agonist mode; type: biochemical; conditions: agonist mode
# Procedure: Two μL of the DMSO solutions were transferred to the plate and 38 μL of 10 nM LXRα-LBD or LXRβ-LBD (2×) were added immediately to the wells. The plate was shaken for 5 min at rt on an orbital micro shaker (DPC MicroMix® 5), after which 40 μL of 200 nM fluorescein-SRC2-3 peptide and 20 nM Terbium-anti-GST-antibody (Cat# PV3550, Life Technologies, Grand Island, N.Y.) solution (4×) were added to all. The plate was sealed and shaken for 2 min at rt, and incubated at rt for 2 h without agitation. […] The delay and window times were set at 100 and 200 microseconds, respectively. […] The percent control vs. compound concentration data were fit into a four-parameter model, and EC50 values were calculated from the fit as the concentrations corresponding to the inflection points on the concentration-response curves.
# [1] = target: Gal4 DNA binding domain fused to the LBD of LXRα in HEK293 cells (Homo sapiens (Human), UniProt Q13133); assay: LXR luciferase transcriptional reporter gene assay, agonist mode, LXRα; type: cell-based; conditions: for EC50: read-out: Cell LXRα EC50
# Gal4 DNA binding domain fused to the LBD of LXRα in HEK293 cells, sequence (Q13133 209-447): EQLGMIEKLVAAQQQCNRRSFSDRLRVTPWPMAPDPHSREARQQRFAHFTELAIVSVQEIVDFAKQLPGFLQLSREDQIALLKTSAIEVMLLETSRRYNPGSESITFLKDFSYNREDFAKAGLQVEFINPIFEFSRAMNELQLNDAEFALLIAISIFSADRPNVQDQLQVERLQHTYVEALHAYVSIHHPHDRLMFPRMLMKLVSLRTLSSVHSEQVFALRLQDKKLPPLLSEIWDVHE
# LXR α LBD protein, sequence (Q13133 209-447): as above
Molecule,EC50 (LXR α LBD protein) [µM],FRET LXRα efficacy (LXR α LBD protein) [%],EC50 ([1]; agonist mode) [µM],Cell LXRα efficacy [1],EC50 [1] [µM]
"COC(=O)c1ccc(N2CCN(C(=O)OC(C)(C)C)C(c3ccccc3)C2)cc1S(C)(=O)=O (centres unmarked) [2-3, tert-butyl 4-(4-(methoxycarbonyl)-3-(methylsulfonyl)phenyl)-2-phenylpiperazine-1-carboxylate]",34.9,102,> 20,,
"CC(C)[C@@H]1CN(c2ccc(C(N)=O)c(S(C)(=O)=O)c2)CCN1C(=O)OC(C)(C)C [4-1, tert-butyl (R)-4-(4-carbamoyl-3-(methylsulfonyl)phenyl)-2-isopropylpiperazine-1-carboxylate]",14.5,68,,15676 (21) %,15.7
"CC(C)COC(=O)N1CCN(c2cccc(S(C)(=O)=O)c2)CC1c1ccccc1 (centres unmarked) [5-5, isobutyl 4-(3-(methylsulfonyl)phenyl)-2-phenylpiperazine-1-carboxylate]",2.5,33,3.05,3049 (6) %,
"CC(C)OC(=O)N1CCN(c2cccc(S(C)(=O)=O)c2)CC1c1ccccc1 (centres unmarked) [5-8, isopropyl 4-(3-(methylsulfonyl)phenyl)-2-phenylpiperazine-1-carboxylate]",19.8,41,> 20,,
"CC(C)(C)OC(=O)N1CCN(c2cccc(S(C)(=O)=O)c2)C[C@H]1C(C)(C)O [6-1, tert-butyl (S)-2-(2-hydroxypropan-2-yl)-4-(3-(methylsulfonyl)phenyl)piperazine-1-carboxylate]",> 50,,,,> 20
"COC(=O)c1cnc(N2CCN(c3cccc(S(C)(=O)=O)c3)C[C@H]2C(C)C)nc1 [7-9, methyl (R)-2-(2-isopropyl-4-(3-(methylsulfonyl)phenyl)piperazin-1-yl)pyrimidine-5-carboxylate]",0.48,57,3.53,3532 (36) %,
"CC(C)(C)C1CN(c2ccc(F)c(S(C)(=O)=O)c2)CCN1c1nccc(C(F)(F)F)n1 (centres unmarked) [7-29, 2-(2-(tert-butyl)-4-(4-fluoro-3-(methylsulfonyl)phenyl)piperazin-1-yl)-4-(trifluoromethyl)pyrimidine]",0.161,101,0.15,150 (92) %,
"CC(C)[C@@H]1CN(c2ccc(C#N)c(S(C)(=O)=O)c2)CCN1c1ccc(C(F)(F)F)cn1 [7-37, (R)-4-(3-isopropyl-4-(5-(trifluoromethyl)pyridin-2-yl)piperazin-1-yl)-2-(methylsulfonyl)benzonitrile]",2.64,220,1.7,1702 (96) %,
"CC(C)[C@@H]1CN(c2ccc(C#N)c(S(C)(=O)=O)c2)CCN1c1cccc(C(F)(F)F)n1 [7-38, (R)-4-(3-isopropyl-4-(6-(trifluoromethyl)pyridin-2-yl)piperazin-1-yl)-2-(methylsulfonyl)benzonitrile]",3.15,204,2.96,2960 (86) %,
"CC(C)[C@@H]1CN(c2ccc(C#N)c(S(C)(=O)=O)c2)CCN1c1cc(C(F)(F)F)ccn1 [7-39, (R)-4-(3-isopropyl-4-(4-(trifluoromethyl)pyridin-2-yl)piperazin-1-yl)-2-(methylsulfonyl)benzonitrile]",1.43,191,1.5,1502 (80) %,
"CS(=O)(=O)c1cccc(N2CCN(c3ccc(C(F)(F)F)cn3)[C@@H](c3ccccc3)C2)c1 [7-40, (S)-4-(3-(methylsulfonyl)phenyl)-2-phenyl-1-(5-(trifluoromethyl)pyridin-2-yl)piperazine]",45.1,70,> 20,,
"CS(=O)(=O)c1cccc(N2CCN(Cc3ccccc3)C(c3ccccc3)C2)c1 (centres unmarked) [46-4, 1-benzyl-4-(3-(methylsulfonyl)phenyl)-2-phenylpiperazine]",0.875,41,> 20,,
"CS(=O)(=O)c1cccc(N2CCN(Cc3cccc(C(F)(F)F)c3)C(c3ccccc3)C2)c1 (centres unmarked) [46-13, 4-(3-(methylsulfonyl)phenyl)-2-phenyl-1-(3-(trifluoromethyl)benzyl)piperazine]",1.9,28,> 20,,
"CS(=O)(=O)c1cccc(N2CCN(Cc3ccc(C(F)(F)F)c(Cl)c3)[C@H](Cc3ccccc3)C2)c1 [46-33, (R)-2-benzyl-1-(3-chloro-4-(trifluoromethyl)benzyl)-4-(3-(methylsulfonyl)phenyl)piperazine]",2.54,37,2.35,2354 (44) %,
"Cc1ccc(CN2CCN(c3cccc(S(C)(=O)=O)c3)CC2c2ccccc2)cn1 (centres unmarked) [46-40, 1-((6-methylpyridin-3-yl)methyl)-4-(3-(methylsulfonyl)phenyl)-2-phenylpiperazine]",4.12,38,> 20,,
"CC1(c2ccccc2)CN(c2cccc(S(C)(=O)=O)c2)CCN1Cc1ccc(C(F)(F)F)nc1 (centres unmarked) [46-49, 2-methyl-4-(3-(methylsulfonyl)phenyl)-2-phenyl-1-((6-(trifluoromethyl)pyridin-3-yl)methyl)piperazine]",0.264,10,3.24,3237 (12) %,
"CS(=O)(=O)c1cccc(N2CCN(Cc3ccc(C(F)(F)F)nc3)C(c3ccc(F)cc3)C2)c1 (centres unmarked) [46-51, 2-(4-fluorophenyl)-4-(3-(methylsulfonyl)phenyl)-1-((6-(trifluoromethyl)pyridin-3-yl)methyl)piperazine]",2.3,41,3.66,3658 (17) %,
"CS(=O)(=O)c1cc(N2CCN(Cc3ccc(C(F)(F)F)nc3)C(c3ccccc3)C2)ccc1F (centres unmarked) [46-52, 4-(4-fluoro-3-(methylsulfonyl)phenyl)-2-phenyl-1-((6-(trifluoromethyl)pyridin-3-yl)methyl)piperazine]",5.2,20,11.7,11699 (17) %,
"CS(=O)(=O)c1cccc(N2CCN(Cc3ccc(C(F)(F)F)nc3)C(c3ccc(Cl)cc3)C2)c1 (centres unmarked) [46-54, 2-(4-chlorophenyl)-4-(3-(methylsulfonyl)phenyl)-1-((6-(trifluoromethyl)pyridin-3-yl)methyl)piperazine]",,49,> 20,,
"CS(=O)(=O)c1cc(N2CCN(Cc3ccc(C(F)(F)F)nc3)C(c3ccccc3)C2)ccc1C(N)=O (centres unmarked) [46-58, 2-(methylsulfonyl)-4-(3-phenyl-4-((6-(trifluoromethyl)pyridin-3-yl)methyl)piperazin-1-yl)benzamide]",> 50,,6.99,6986 (8) %,
"CS(=O)(=O)c1cccc(N2CCN(Cc3ccc(C(F)(F)F)nc3)C(c3ccccc3Br)C2)c1 (centres unmarked) [46-60, 2-(2-bromophenyl)-4-(3-(methylsulfonyl)phenyl)-1-((6-(trifluoromethyl)pyridin-3-yl)methyl)piperazine]",,39,4.38,4383 (33) %,
"CS(=O)(=O)c1cc(N2CCN(Cc3ccc(C(F)(F)F)c(Cl)c3)C(c3ccccc3)C2)ccc1CO (centres unmarked) [47-4, (4-(4-(3-chloro-4-(trifluoromethyl)benzyl)-3-phenylpiperazin-1-yl)-2-(methylsulfonyl)phenyl)methanol]",0.224,109,0.914,914 (96) %,
"CC(C)[C@@H]1CN(c2ccc(C#N)c(S(C)(=O)=O)c2)CCN1C(=O)OC(C)(C)C [Cpd No 3-1, tert-butyl (R)-4-(4-cyano-3-(methylsulfonyl)phenyl)-2-isopropylpiperazine-1-carboxylate]",18,76,12.8,12810 (20) %,
"CC(C)[C@@H]1CN(c2ccc(C(F)(F)F)c(S(C)(=O)=O)c2)CCN1C(=O)OC(C)(C)C [Cpd No 3-2, tert-butyl (R)-2-isopropyl-4-(3-(methylsulfonyl)-4-(trifluoromethyl)phenyl)piperazine-1-carboxylate]",12,54,14.4,14412 (19) %,
"Cc1cc(C)nc(N2CCN(c3cccc(S(C)(=O)=O)c3)C[C@H]2C(C)C)n1 [Cpd No 7-3, (R)-2-(2-isopropyl-4-(3-(methylsulfonyl)phenyl)piperazin-1-yl)-4,6-dimethylpyrimidine]",0.51,36,7.92,7923 (24) %,
"CS(=O)(=O)c1cccc(N2CCN(Cc3ccc(C(F)(F)F)c(Cl)c3)[C@@H](Cc3ccccc3)C2)c1 [Cpd No 45-1, (S)-2-benzyl-1-(3-chloro-4-(trifluoromethyl)benzyl)-4-(3-(methylsulfonyl)phenyl)piperazine]",,39,,3618 (61) %,3.62
tert-butyl (S)-2-isobutyl-4-(3-(methylsulfonyl)phenyl)piperazine-1-carboxylate [1-2],6.81,55,,9219 (6) %,9.22
